Source: patent US10736316B2, “Silica particles functionalized and loaded with fungicidal agents, their manufacture and their use as systems of targeted and controlled release of fungicides” (priority 2015, dated 2020)

Columns and labels:
[1] = Analysis of free imazalil in treatment water by HPLC; assay type: physicochemical; conditions: for [IMZ] free in water: treatment water at the moment of treatment; for Reduction of [IMZ] in water: versus reference treatment water
Description: (§1) 1 ml of test solution of loaded microparticles was filtered through a nylon 0.45 micron syringe filter and later analyzed by HPLC (Agilent 1100 Series).
Chromatographic Conditions:
60% Phosphate buffer pH=2.5, 2 mM
(§2) For the LD treatments, IMZ LD C18 and IMZ LD C12, suspensions of (IMZ)SG-C18-OH and (IMZ)SG-C12-OH at 6 g/l in tap water buffered with 10 mM of sodium etidronate at pH=7.5 was prepared from the concentrated suspensions described in examples 7 and 8. […] As a control, a treatment of bathing in tap water was carried out (CONTROL).
(§3) The reduction of free fungicide in water is calculated as: 100×(concentration of free fungicide in reference treatment water−concentration of free fungicide in LD treatment water)/concentration of free fungicide in reference treatment water. Likewise, the reduction of fungicide residues in fruits is calculated as: 100×(fungicide residues in fruit in reference treatment−fungicide residues in fruit in LD treatment)/fungicide residues in fruit in reference treatment.

[2] = Analysis of free thiabenzadol in treatment water by HPLC; assay type: physicochemical; conditions: example 22
Description: as §3
This experiment was carried out following the same procedure as for examples 9-14. The free thiabenzadol residues in water and virtual were analyzed according to examples 23 and 24. For the reference conventional treatment (TBZ REF) a solution of thiabenzadol at 1200 mg/l in tap water was prepared from a commercial solution at 40% (TEXTAR). For the LD treatment (TBZ LD C18) a suspension of (TBZ)SG-C18-OH of 16 g/l in tap water buffered with sodium etidronate 10 mM at pH=7.5 was prepared from the concentrated suspension described in example 21. A 16 g/l suspension correspond to a virtual thiabenzadol concentration contained within the microparticles of 1200 mg/l. As a control, a treatment of bathing in tap water was carried out (CONTROL).
as §1
(§4) Chromatographic Conditions: […]

Penicillium digitatum = test: Rotting control (RRI) in oranges of Valencia variety inoculated with P. digitatum; assay type: in vivo; conditions: 7 days at 22° C. and 85% RH
Description: Without previous washing or treatment, fruits from the same batch, receive from field, were randomized in groups of 25. Each treatment was performed with 4 replicates of 25 fruits, which were artificially inoculated on one side by pricking with a punch (2 mm length, 1 mm diameter) previously impregnated in a solution of Penicillium digitatum or Penicillium italicum spores of 5*10^5 cfu/ml and allowed to stand for 17 hours before treatment.
as §2
The 25 fruits of each replicate were bathed using a mesh by immersion for 30 seconds in 10 l of treatment. […] After this time, the number of rotten fruits were counted for each replicate. The effectiveness of the treatments is expressed as % rotting and also as rotting reduction index (RRI, %), which is calculated as: 100×(No. of rotten control fruits−No. of rotten products in the treatment)/No. of rotten fruits in the control.
This experiment was carried out following the same procedure as for examples 9-14. The free pyrimethanil residues in water and virtual were analyzed according to examples 18 and 19. […]

[3] = Analysis of free pyrimethanil in treatment water by HPLC; assay type: physicochemical; conditions: example 17
Description: as §3
This experiment was carried out following the same procedure as for examples 9-14. The free pyrimethanil residues in water and virtual were analyzed according to examples 18 and 19. For the reference conventional treatment (PIRREF) a solution of pyrimethanil at 525 mg/l in tap water was prepared from a commercial solution at 40% (PENBOTEC). For the LD treatment (PIR LD C18) a suspension of (PIR)SG-C18-OH of 14 g/l in tap water buffered with sodium etidronate 10 mM at pH=7.5 was prepared from the concentrated suspension described in example 16. A 14 g/l suspension correspond to a virtual pyrimethanil concentration contained within the microparticles of 525 mg/l. As a control, a treatment of bathing in tap water was carried out (CONTROL).
as §1, §4

[4] = treatment water at the moment of treatment
[5] = versus reference treatment water

In the case of imazalil sulfate [IMZ REF], the “[IMZ] free in water” value ([1]; example 9) is reported as 450 mg/L, the “Reduction of [IMZ] in water” value ([1]; example 9) is reported as 0.0% and the “[IMZ] free in water” value ([1]; example 10) is reported as 450 mg/L. The “Reduction of [IMZ] in water” value ([1]; example 10) was 0.0%, the “[IMZ] free in water” value ([1]; example 11) was 450 mg/L and the “Reduction of [IMZ] in water” value ([1]; example 11) was 0.0%. For the same compound, the “[IMZ] free in water” value ([1]; example 12) was 450 mg/L, the “Reduction of [IMZ] in water” value ([1]; example 12) was 0.0% and the “[IMZ] free in water” value ([1]; example 13) was 450 mg/L. The “Reduction of [IMZ] in water” value ([1]; example 13) was 0.0%, the “[IMZ] free in water” value ([1]; example 14) was 450 mg/L and the “Reduction of [IMZ] in water” value ([1]; example 14) was 0.0%.
For c1ccc2[nH]c(-c3cscn3)nc2c1 [TBZ REF, thiabenzadol], the “[TBZ] free in water” value [2, 4] was 1200 mg/L, the “Reduction of [TBZ] in water” value [2, 5] was 0.0% and the “rotting reduction index (RRI)” value (Penicillium digitatum; example 22, FIG. 18, 16 g/l (TBZ)SG-C18-OH in etidronic buffer pH=7.5 or thiabenzadol 1200 mg/l) was 100%.
In the case of Cc1cc(C)nc(Nc2ccccc2)n1 [PIR REF, pyrimethanil], the “[PIR] free in water” value [3, 4] is reported as 525 mg/L, the “Reduction of [PIR] in water” value [3, 5] is reported as 0.0% and the “rotting reduction index (RRI)” value (Penicillium digitatum; example 17, FIG. 16, 14 g/l (PIR)SG-C18-OH in etidronic buffer pH=7.5 or pyrimethanil 525 mg/l) is reported as ~90%.
